# Literature values, collected in US20110189319A1, “Lifeforce liquid supplement” (priority 2010, published 2011).
# pIC50: −log10 of the molar value. Like-named read-outs stand apart in the source and are kept apart here.
# Key:
# [1] = tested on: patients affected by chronic cerebrovasculopathy; settings: 1000 mg/day i.m.
# [2] = tested on: patients with Alzheimer disease; settings: 1,000 mg/day
# [3] = in vivo
# AMD patients = settings: 10 mg daily, 12 months
# lymphocytes = settings: relative to beta-carotene
# [4] = tested on: permanent middle cerebral artery occlusion in rats; settings: rats, 2,3,5-triphenyltetrazolium-chloride staining
# [5] = in vivo; remark: listed apart in the source
# [6] = tested on: healthy female volunteers; settings: 40 mg three times a day, two days
# [7] = tested on: patients suffering from multiple cerebral infarcts
# [8] = target: phosphodiesterase (PDE) type-1
# [9] = tested on: patients suffering from mild to moderate dementia; settings: 10 or 20 mg three times a day, sixteen weeks
# [10] = tested on: elderly patients with chronic cerebral dysfunction
# [11] = not given; remark: listed apart in the source
# [12] = oral, healthy male volunteers, PET
# exercise capacity = settings: 750 mg soybean-derived daily for 10 d
# young adults = settings: 300 mg each day for a month, neuroticism scores above the median
# [13] = tested on: healthy elderly volunteers; settings: 100 mg×3/day p.o., 12 weeks
# [14] = tested on: elderly with age-associated memory impairment; settings: in vivo
# women = settings: highest versus least dietary intake
# [15] = tested on: female health professionals; settings: about 262.4 versus 4.4 milligrams per day
# [16] = 100 microM, ascorbate/Fe2+ oxidative stress
# [17] = 2,038 subjects without hypertension
# [18] = 2,238 subjects not using drugs, supplements or special diet
# [19] = high (0.67% kcal) versus lower intake, all participants
compound,measurement,setting,value
"C[N+](C)(C)CCOP(=O)(O)OP(=O)([O-])OC[C@H]1O[C@@H](n2ccc(N)nc2=O)[C@H](O)[C@@H]1O [Citicoline, cytidine 5′-diphosphocholine]",side-effects,[1],No side-effects were detected
same,tolerability,[2],well tolerated
same,bioavailability,in vivo,greater than 90%
same,excreted in feces,"oral doses, healthy adults",less than one
same,first plasma peak after ingestion,"oral, biphasic",one
same,second larger plasma peak post-dosing,"oral, biphasic",24 h
CC1=C[C@H](O)CC(C)(C)[C@H]1/C=C/C(C)=C/C=C/C(C)=C/C=C/C=C(C)/C=C/C=C(C)/C=C/C1=C(C)C[C@@H](O)CC1(C)C [Lutein],bioavailability,[3],approximately 70%
same,increase in macular pigment density relative to placebo,AMD patients,50%
same,"visual function (glare recovery, contrast sensitivity, visual acuity) vs. placebo",AMD patients,significant improvements
CC(C)=CCC/C(C)=C/C=C/C(C)=C/C=C/C(C)=C/C=C/C=C(C)/C=C/C=C(C)/C=C/C=C(\C)CCC=C(C)C [Lycopene],protection of lymphocytes from membrane damage and cell death,lymphocytes,twice as efficiently as beta-carotene
C[C@]12N[C@H](Cc3ccccc31)c1ccccc12 [MK-801],decrease of infarct volume compared to control,[4],18%
"CC(C)=CCC[C@](C)(O[C@@H]1O[C@H](CO[C@@H]2O[C@H](CO)[C@@H](O)[C@H](O)[C@H]2O)[C@@H](O)[C@H](O)[C@H]1O)[C@H]1CC[C@]2(C)[C@@H]1[C@H](O)C[C@@H]1[C@@]3(C)CC[C@H](O[C@@H]4O[C@H](CO)[C@@H](O)[C@H](O)[C@H]4O[C@@H]4O[C@H](CO)[C@@H](O)[C@H](O)[C@H]4O)C(C)(C)[C@@H]3CC[C@]12C [Rb1, Ginsenoside Rb1]",oral bioavailability,[5]; po,low oral bioavailability
"CC(C)=CCC[C@](C)(O[C@@H]1O[C@H](CO)[C@@H](O)[C@H](O)[C@H]1O)[C@H]1CC[C@]2(C)[C@@H]1[C@H](O)C[C@@H]1[C@@]3(C)CC[C@H](O)C(C)(C)[C@@H]3[C@@H](O[C@@H]3O[C@H](CO)[C@@H](O)[C@H](O)[C@H]3O)C[C@]12C [Rg1, ginsenoside Rg1]",elimination from the blood,[5],rapidly eliminated from the blood
CCOC(=O)C1=C[C@]2(CC)CCCN3CCc4c(n1c1ccccc41)[C@@H]32 [Vinpocetine],memory versus placebo,[6],significantly improved
same,decrease of DCFH2-DA fluorescence,rat brain synaptosomes; [16],about 50%
same,decrease of DHR 123 fluorescence,rat brain synaptosomes; [16],~83%
same,ascorbate/Fe2+ stimulated consumption of oxygen and TBARS accumulation,rat brain synaptosomes; concentration-dependent,inhibited
same,side effects,[7]; in vivo,No serious side effect
same,digit span backward test,[7]; three months,did not show any significant worsening
same,"flow velocities after breath holding, acute phase, versus placebo",[7]; transcranial Doppler,significantly lower
same,decrease of infarct volume compared to control,[4],42%
same,pIC50,[8],~5.00
same,cognitive improvement versus placebo,[9],Statistically significant cognitive improvements
same,side effects,[9],no clinically relevant side effects
same,cognitive evaluations versus placebo,"[10]; 10 mg tid thirty days, then 5 mg tid sixty days",scored consistently better in all cognitive evaluations
same,side effects,[10]; ninety-day trial,No serious side effects
same,absorption of an ingested dose,[11]; given with food,up to 60%
same,elimination half-life following ingestion,[11]; in vivo,one to two
same,levels peak in the bloodstream after ingestion,[11]; in vivo,an hour and a half
same,time to peak plasma levels after ingestion,[11]; in vivo,one to one and a half
same,absorption of an ingested dose,[11]; on an empty stomach,≥ 7%
same,time in which most of a dose is excreted as apovincaminic acid,[11]; urine,≤ 24 h
CCOC(=O)C1=C[C@]2(CC)CCCN3CCc4c(n1c1ccccc41)[C@@H]32 [[11C] vinpocetine],average maximum brain uptake,[12],0.7 % of the administered total dose
COc1ccc2c(=O)oc3c(OC)cc(CCN(C)C)c4c(=O)oc1c2c34 [taspine],activity against herpes virus,herpes virus,active
Phosphatidylserine,exercise capacity,exercise capacity,improved exercise capacity
same,feelings of stress and mood,young adults,feeling less stressed and having a better mood
same,outcome measures of age related cognitive decline,[13],significant drug over time effect
same,safe dosage for older persons,[14],≤ 200 mg three times daily
omega-3 fatty acid,lower risk of dry eye syndrome,women,17%
same,average diastolic reduction,INTERMAP participants; [17],0.92 mm Hg
same,average systolic reduction,INTERMAP participants; [17],0.91 mm Hg
same,reduction in diastolic blood pressure,INTERMAP participants; [18],0.98 mm Hg
same,reduction in systolic blood pressure,INTERMAP participants; [18],1.01 mm Hg
same,lower average diastolic blood pressure,INTERMAP participants; [19],0.57 mm Hg
same,lower average systolic blood pressure,INTERMAP participants; [19],0.55 mm Hg
vitamin E,less likely to develop cataracts,[15],14%
